Holding throughout (type): functional
Assay [1] deals with Candida parapsilosis. The assay is described as follows: Antifungal activity against Candida parapsilosis. Conditions: Lodderomyces parapsilosis.
In assay [2] the test system is Candida albicans. The assay can be described thus: Potency index, ratio of fluconazole MIC to test compound MIC for Candida albicans.
The next assay has as its system Kluyveromyces marxianus. The assay is described as follows: Antifungal activity against Candida kefyr. Conditions: Kluyveromyces marxianus.
The test system of a further assay is Candida tropicalis. The assay can be described thus: Antifungal activity against Candida tropicalis. As to conditions: Candida tropicalis.
The subject of the next assay is Cryptococcus neoformans. The assay is described as follows: Antifungal activity against Cryptococcus neoformans. As to conditions: Cryptococcus neoformans.
Assay [3] concerns Candida albicans. The assay is described as follows: Antifungal activity against Candida albicans. As to conditions: Candida albicans.
The next assay relates to Trichophyton rubrum. The assay can be described thus: Antifungal activity against Trichophyton rubrum. Conditions: Trichophyton rubrum.
In assay [4] the test system is Aspergillus fumigatus. The assay is described as follows: Antifungal activity against Aspergillus fumigatus. Conditions: Aspergillus fumigatus.
For assay [5], the system named is Candida albicans. The assay can be described thus: Antifungal activity against Candida albicans ATCC 76615 after 24 hrs by microbroth dilution method. As to conditions: ATCC 76615, 24 h.
Assay [6] has as its system Pichia kudriavzevii. The assay is described as follows: Antifungal activity against Candida krusei CK506. Conditions: Pichia kudriavzevii, CK506; read-out: MIC.
Assay [7] relates to Candida albicans. The assay is described as follows: Antifungal activity against Candida albicans CA98001. Conditions: Candida albicans, CA98001; read-out: MIC.
Assay [8] concerns Candida albicans. The assay is described as follows: Antifungal activity against Candida albicans CAAL-74. As to conditions: Candida albicans, CAAL-74; read-out: MIC.
Assay [9] concerns Candida parapsilosis. The assay can be described thus: Antifungal activity against Candida parapsilosis CAPA2. As to conditions: Lodderomyces parapsilosis, CAPA2; read-out: MIC.
In assay [10] the test system is Aspergillus fumigatus. The assay is described as follows: Antifungal activity against Aspergillus fumigatus AF98003.
In assay [11] the test system is Candida parapsilosis. The assay is described as follows: Antifungal activity against Candida parapsilosis CAPA1. Conditions: Lodderomyces parapsilosis, CAPA1; read-out: MIC.
In assay [12] the test system is Pichia kudriavzevii. The assay can be described thus: Antifungal activity against Candida krusei CK8. Conditions: Pichia kudriavzevii, CK8; read-out: MIC.
The test system of another assay is Nakaseomyces glabratus. The assay can be described thus: Antifungal activity against Candida glabrata CG468. As to conditions: Nakaseomyces glabratus, CG468; read-out: MIC.
In assay [13] the test system is Candida albicans. The assay can be described thus: Antifungal activity against Candida albicans DSY735. Conditions: Candida albicans, DSY735; read-out: MIC.

In brackets after ≈: the same amount, converted by molar mass.

For the compound `OC(CN1CCC(OCc2ccc(F)cc2)CC1)(Cn1cncn1)c1ccc(F)cc1F` (stereo unspecified), the MIC80 against Candida parapsilosis [1] was 0.01 to 2.33 µM (≈ 0.00446 to 1.04 µg/mL); in the assay with Kluyveromyces marxianus, 0.01 to 2.33 µM (≈ 0.00446 to 1.04 µg/mL); in the assay on Candida tropicalis, 0.01 to 2.33 µM (≈ 0.00446 to 1.04 µg/mL); against Cryptococcus neoformans it was 0.01 to 2.33 µM (≈ 0.00446 to 1.04 µg/mL); in the assay on Candida albicans [3], 0.01 µM (≈ 0.00446 µg/mL); with Trichophyton rubrum, 0.03 to 0.15 µM (≈ 0.0134 to 0.067 µg/mL). For the same compound, the MIC80 in the assay on Aspergillus fumigatus [4] is 0.55 to 2.33 µM (≈ 0.246 to 1.04 µg/mL); against Candida albicans [5] it was 0.01 to 2.33 µM (≈ 0.00446 to 1.04 µg/mL). For the same compound, the Ratio with Candida albicans [2] stood at 82.

`CCCc1ccc(NS(=O)(=O)c2ccc(CN(C)CC(O)(Cn3cncn3)c3ccc(F)cc3F)cc2)cc1` (stereo unspecified): the MIC was in the range of 0.001 to 0.069 µg/mL (≈ 0.0018 to 0.124 µM) in the assay on Pichia kudriavzevii [6]; 0.001 to 0.069 µg/mL (≈ 0.0018 to 0.124 µM) in the assay on Candida albicans [7]; 0.001 to 0.069 µg/mL (≈ 0.0018 to 0.124 µM) in the assay on Candida albicans [8]; 0.001 to 0.069 µg/mL (≈ 0.0018 to 0.124 µM) in the assay with Candida parapsilosis [9]; 0.767 to 3.57 µg/mL (≈ 1.38 to 6.42 µM) in the assay on Aspergillus fumigatus [10]; 0.001 to 0.069 µg/mL (≈ 0.0018 to 0.124 µM) in the assay with Candida parapsilosis [11]. Moreover, the MIC in the assay on Pichia kudriavzevii [12], in the assay with Nakaseomyces glabratus and in the assay on Candida albicans [13] was 0.001 to 0.069 µg/mL (≈ 0.0018 to 0.124 µM) throughout.

Turning to `CC(C)CNS(=O)(=O)c1ccc(CN(C)CC(O)(Cn2cncn2)c2ccc(F)cc2F)cc1` (stereo unspecified), the MIC in the assay with Pichia kudriavzevii [6] lay in the range of 0.001 to 0.069 µg/mL (≈ 0.00203 to 0.14 µM); in the assay on Candida albicans [7], 0.001 to 0.069 µg/mL (≈ 0.00203 to 0.14 µM); with Candida albicans [8], 0.001 to 0.069 µg/mL (≈ 0.00203 to 0.14 µM); with Candida parapsilosis [9], 0.001 to 0.069 µg/mL (≈ 0.00203 to 0.14 µM); in the assay on Aspergillus fumigatus [10], 0.767 to 3.57 µg/mL (≈ 1.55 to 7.23 µM); in the assay with Candida parapsilosis [11] it was 0.001 to 0.069 µg/mL (≈ 0.00203 to 0.14 µM). The MIC in the assay on Pichia kudriavzevii [12], in the assay with Nakaseomyces glabratus and in the assay with Candida albicans [13] was 0.001 to 0.069 µg/mL (≈ 0.00203 to 0.14 µM) throughout.

Regarding `CN(Cc1ccc(S(N)(=O)=O)cc1)CC(O)(Cn1cncn1)c1ccc(F)cc1F` (stereo unspecified), the MIC in the assay with Pichia kudriavzevii [6] was 0.001 to 0.069 µg/mL (≈ 0.00229 to 0.158 µM); in the assay on Candida albicans [7], 0.001 to 0.069 µg/mL (≈ 0.00229 to 0.158 µM); in the assay with Candida albicans [8] it was 0.001 to 0.069 µg/mL (≈ 0.00229 to 0.158 µM); in the assay on Candida parapsilosis [9] it was 0.001 to 0.069 µg/mL (≈ 0.00229 to 0.158 µM); in the assay with Aspergillus fumigatus [10] it was 0.767 to 3.57 µg/mL (≈ 1.75 to 8.16 µM); with Candida parapsilosis [11] it was 0.001 to 0.069 µg/mL (≈ 0.00229 to 0.158 µM). The MIC with Pichia kudriavzevii [12], in the assay on Nakaseomyces glabratus and in the assay with Candida albicans [13] was 0.001 to 0.069 µg/mL (≈ 0.00229 to 0.158 µM) each time.

As to `CC(C)NS(=O)(=O)c1ccc(CN(C)CC(O)(Cn2cncn2)c2ccc(F)cc2F)cc1` (stereo unspecified), the MIC in the assay on Pichia kudriavzevii [6] lay within 0.001 to 0.069 µg/mL (≈ 0.00209 to 0.144 µM); in the assay on Candida albicans [7], 0.001 to 0.069 µg/mL (≈ 0.00209 to 0.144 µM); with Candida albicans [8], 0.001 to 0.069 µg/mL (≈ 0.00209 to 0.144 µM); in the assay on Candida parapsilosis [9], 0.001 to 0.069 µg/mL (≈ 0.00209 to 0.144 µM); against Aspergillus fumigatus [10], 0.767 to 3.57 µg/mL (≈ 1.6 to 7.44 µM); in the assay on Candida parapsilosis [11], 0.001 to 0.069 µg/mL (≈ 0.00209 to 0.144 µM). In addition, the MIC with Pichia kudriavzevii [12], in the assay with Nakaseomyces glabratus and with Candida albicans [13] was 0.001 to 0.069 µg/mL (≈ 0.00209 to 0.144 µM) throughout.

Take `CN(Cc1ccc(S(=O)(=O)Nc2ccccc2)cc1)CC(O)(Cn1cncn1)c1ccc(F)cc1F` (stereo unspecified): the MIC in the assay on Pichia kudriavzevii [6] fell in the range of 0.001 to 0.069 µg/mL (≈ 0.00195 to 0.134 µM); with Candida albicans [7], 0.001 to 0.069 µg/mL (≈ 0.00195 to 0.134 µM); in the assay with Candida albicans [8] it was 0.001 to 0.069 µg/mL (≈ 0.00195 to 0.134 µM); in the assay on Candida parapsilosis [9] it was 0.001 to 0.069 µg/mL (≈ 0.00195 to 0.134 µM); in the assay on Aspergillus fumigatus [10] it was 0.767 to 3.57 µg/mL (≈ 1.49 to 6.95 µM); with Candida parapsilosis [11], 0.001 to 0.069 µg/mL (≈ 0.00195 to 0.134 µM). Further, the MIC in the assay with Pichia kudriavzevii [12], with Nakaseomyces glabratus and in the assay on Candida albicans [13] was 0.001 to 0.069 µg/mL (≈ 0.00195 to 0.134 µM) in each case.

In the case of `CCCNS(=O)(=O)c1ccc(CN(C)CC(O)(Cn2cncn2)c2ccc(F)cc2F)cc1` (stereo unspecified), the MIC lay in the range of 0.001 to 0.069 µg/mL (≈ 0.00209 to 0.144 µM) with Pichia kudriavzevii [6]; 0.001 to 0.069 µg/mL (≈ 0.00209 to 0.144 µM) with Candida albicans [7]; 0.001 to 0.069 µg/mL (≈ 0.00209 to 0.144 µM) in the assay on Candida albicans [8]; 0.001 to 0.069 µg/mL (≈ 0.00209 to 0.144 µM) in the assay with Candida parapsilosis [9]; 0.767 to 3.57 µg/mL (≈ 1.6 to 7.44 µM) in the assay on Aspergillus fumigatus [10]; 0.001 to 0.069 µg/mL (≈ 0.00209 to 0.144 µM) with Candida parapsilosis [11]. For the same compound, the MIC with Pichia kudriavzevii [12], in the assay with Nakaseomyces glabratus and in the assay with Candida albicans [13] was 0.001 to 0.069 µg/mL (≈ 0.00209 to 0.144 µM) throughout.

As for `CN(Cc1ccc(S(=O)(=O)Nc2ccc([N+](=O)[O-])cc2)cc1)CC(O)(Cn1cncn1)c1ccc(F)cc1F` (stereo unspecified), the MIC fell in the range of 0.001 to 0.069 µg/mL (≈ 0.00179 to 0.124 µM) in the assay on Pichia kudriavzevii [6]; 0.001 to 0.069 µg/mL (≈ 0.00179 to 0.124 µM) in the assay on Candida albicans [7]; 0.001 to 0.069 µg/mL (≈ 0.00179 to 0.124 µM) in the assay on Candida albicans [8]; 0.001 to 0.069 µg/mL (≈ 0.00179 to 0.124 µM) with Candida parapsilosis [9]; 0.767 to 3.57 µg/mL (≈ 1.37 to 6.39 µM) in the assay with Aspergillus fumigatus [10]; 0.001 to 0.069 µg/mL (≈ 0.00179 to 0.124 µM) in the assay with Candida parapsilosis [11]. The MIC in the assay on Pichia kudriavzevii [12], in the assay with Nakaseomyces glabratus and in the assay on Candida albicans [13] was 0.001 to 0.069 µg/mL (≈ 0.00179 to 0.124 µM) each time.

With `CC(C)c1ccc(NS(=O)(=O)c2ccc(CN(C)CC(O)(Cn3cncn3)c3ccc(F)cc3F)cc2)cc1` (stereo unspecified), the MIC is 0.001 to 0.069 µg/mL (≈ 0.0018 to 0.124 µM) in the assay with Pichia kudriavzevii [6]; 0.001 to 0.069 µg/mL (≈ 0.0018 to 0.124 µM) in the assay with Candida albicans [7]; 0.001 to 0.069 µg/mL (≈ 0.0018 to 0.124 µM) with Candida albicans [8]; 0.001 to 0.069 µg/mL (≈ 0.0018 to 0.124 µM) in the assay on Candida parapsilosis [9]; 0.767 to 3.57 µg/mL (≈ 1.38 to 6.42 µM) against Aspergillus fumigatus [10]; 0.001 to 0.069 µg/mL (≈ 0.0018 to 0.124 µM) with Candida parapsilosis [11]. Also, the MIC in the assay on Pichia kudriavzevii [12], in the assay with Nakaseomyces glabratus and in the assay on Candida albicans [13] was 0.001 to 0.069 µg/mL (≈ 0.0018 to 0.124 µM) in each case.

The values above are taken from ChEMBL document CHEMBL4396865, “Current advances of triazole alcohols derived from fluconazole: Design, in vitro and in silico studies” (2019).
